IC50 data for 24 molecules are collected here from patent US12522595B2, “Bicyclic ether O-glycoprotein-2-acetamido-2-deoxy-3-D-glucopyranosidase inhibitors” (BIOGEN MA INC., priority 2019, dated 2026).

Each structure is given as a SMILES string.

The experiment deals with T1, Recombinant full length human OGA enzyme (Homo sapiens, UniProt O60502).
T1 construct: Recombinant full length human OGA enzyme was purchased from Origene; purchased Origene
T1 sequence (O60502 1-916): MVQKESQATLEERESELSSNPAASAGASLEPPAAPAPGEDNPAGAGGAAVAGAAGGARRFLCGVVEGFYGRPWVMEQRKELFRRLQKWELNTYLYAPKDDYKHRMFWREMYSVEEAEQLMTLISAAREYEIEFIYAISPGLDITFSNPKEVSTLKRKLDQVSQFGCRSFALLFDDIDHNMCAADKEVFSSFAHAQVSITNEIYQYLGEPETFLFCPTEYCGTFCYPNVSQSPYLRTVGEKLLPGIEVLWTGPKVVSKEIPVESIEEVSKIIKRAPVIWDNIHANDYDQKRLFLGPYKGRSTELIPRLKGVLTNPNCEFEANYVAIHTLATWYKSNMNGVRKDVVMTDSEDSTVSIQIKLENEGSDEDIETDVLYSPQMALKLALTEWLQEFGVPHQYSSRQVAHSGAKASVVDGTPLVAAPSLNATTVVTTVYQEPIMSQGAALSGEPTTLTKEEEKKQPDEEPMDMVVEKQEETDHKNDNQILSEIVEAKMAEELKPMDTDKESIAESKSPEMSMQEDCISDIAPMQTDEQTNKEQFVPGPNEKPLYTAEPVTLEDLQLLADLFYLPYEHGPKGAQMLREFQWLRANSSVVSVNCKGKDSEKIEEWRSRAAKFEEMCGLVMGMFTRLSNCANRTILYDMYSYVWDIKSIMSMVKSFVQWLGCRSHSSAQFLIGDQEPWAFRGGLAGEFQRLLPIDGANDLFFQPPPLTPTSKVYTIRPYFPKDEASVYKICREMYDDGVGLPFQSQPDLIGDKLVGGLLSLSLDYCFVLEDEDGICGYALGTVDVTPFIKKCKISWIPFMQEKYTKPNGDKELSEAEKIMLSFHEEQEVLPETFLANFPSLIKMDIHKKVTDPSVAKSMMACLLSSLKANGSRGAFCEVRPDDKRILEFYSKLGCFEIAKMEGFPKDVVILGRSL
The experiment can be described thus: OGA enzyme inhibition biochemical assay. The following applies: 1 nM OGA, 100 μM 4-MUGlcNAc (Km), pH 6.4, 90 minutes at room temperature, 10-point dose-response from 20 μM. The method in brief: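 1 nM OGA with 100 μM 4-MUGlcNAc (Km) in McIlvaine buffer pH 6.4, 0.01% BSA, 90 min at room temperature; quenched with 3M glycine pH 10, fluorescence Ex 355/Em 460 nm. 10-point, 4-fold dilutions from 20 μM; 4-parameter variable-slope fit.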
One may read the IC50 as the midpoint of a concentration-inhibition curve. Turning to `CC(=O)Nc1nc(F)c(CN2C[C@H](Oc3ccn4nccc4c3)C[C@@H]2C)s1` [Example 49, N-(4-fluoro-5-(((2S,4R)-2-methyl-4-(pyrazolo[1,5-a]pyridin-5-yloxy)pyrrolidin-1-yl)methyl)thiazol-2-yl)acetamide], the IC50 is under 1 nM.

In the case of `CC(=O)Nc1ncc(CN2C[C@H](Oc3ncnc4occc34)C[C@@H]2C)s1` [Example 46, N-(5-(((2S,4R)-4-(furo[2,3-d]pyrimidin-4-yloxy)-2-methylpyrrolidin-1-yl)methyl)thiazol-2-yl)acetamide], the IC50 amounted to 1.1 nM.

Turning to `CC(=O)Nc1nc(F)c(CN2C[C@H](Oc3ccc4ncoc4c3)C[C@@H]2C)s1` [Example 76, N-(5-(((2S,4R)-4-(benzo[d]oxazol-6-yloxy)-2-methylpyrrolidin-1-yl)methyl)-4-fluorothiazol-2-yl)acetamide], the IC50 is under 1 nM.

Regarding `CC(=O)Nc1ncc(CN2C[C@H](Oc3ccc4ccccc4n3)C[C@@H]2C)s1` [Example 8, N-(5-(((2S,4R)-2-methyl-4-(quinolin-2-yloxy)pyrrolidin-1-yl)methyl)thiazol-2-yl)acetamide], the IC50 was under 1 nM.

For `CC(=O)Nc1nc(F)c(CN2C[C@H](Oc3nccc4ncccc34)C[C@@H]2C)s1` [Example 114, N-(5-(((2S,4R)-4-((1,6-naphthyridin-5-yl)oxy)-2-methylpyrrolidin-1-yl)methyl)-4-fluorothiazol-2-yl)acetamide], the IC50 was under 1 nM.

Turning to `CC(=O)Nc1nc(F)c(CN2C[C@H](Oc3ncnc4ccc(F)cc34)C[C@@H]2C)s1` [Example 123, N-(4-fluoro-5-(((2S,4R)-4-((6-fluoroquinazolin-4-yl)oxy)-2-methylpyrrolidin-1-yl)methyl)thiazol-2-yl)acetamide], the IC50 came out at 4.1 nM.

With `CC(=O)Nc1nc(F)c(CN2C[C@H](Oc3cccc4nnnn34)C[C@@H]2C)s1` [Example 147, N-(4-fluoro-5-(((2S,4R)-2-methyl-4-(tetrazolo[1,5-a]pyridin-5-yloxy)pyrrolidin-1-yl)methyl)thiazol-2-yl)acetamide], the IC50 is under 1 nM.

Consider `CC(=O)Nc1nc(F)c(CN2C[C@H](Oc3nccc4nccn34)C[C@@H]2C)s1` [Example 98, N-(4-fluoro-5-(((2S,4R)-4-(imidazo[1,2-c]pyrimidin-5-yloxy)-2-methylpyrrolidin-1-yl)methyl)thiazol-2-yl)acetamide], for which the IC50 is under 1 nM.

As to `CC(=O)Nc1nc(F)c(CN2C[C@H](Oc3ccnc4ccoc34)C[C@@H]2C)s1` [Example 47, N-(4-fluoro-5-(((2S,4R)-4-(furo[3,2-b]pyridin-7-yloxy)-2-methylpyrrolidin-1-yl)methyl)thiazol-2-yl)acetamide], the IC50 is under 1 nM.

Consider `CC(=O)Nc1nc(F)c(CN2C[C@H](Oc3cncc4nccn34)C[C@@H]2C)s1` [Example 100, N-(4-fluoro-5-(((2S,4R)-4-(imidazo[1,2-a]pyrazin-5-yloxy)-2-methylpyrrolidin-1-yl)methyl)thiazol-2-yl)acetamide], for which the IC50 is under 1 nM.

On to `CC(=O)Nc1ncc(CN2C[C@H](Oc3ccc4ncoc4c3)C[C@@H]2C)s1` [Example 45, N-(5-(((2S,4R)-4-(benzo[d]oxazol-6-yloxy)-2-methylpyrrolidin-1-yl)methyl)thiazol-2-yl)acetamide], for which the IC50 is under 1 nM.

Turning to `CC(=O)Nc1ncc(CN2C[C@H](Oc3cncc4nccn34)C[C@@H]2C)s1` [Example 99, N-(5-(((2S,4R)-4-(imidazo[1,2-a]pyrazin-5-yloxy)-2-methylpyrrolidin-1-yl)methyl)thiazol-2-yl)acetamide], the IC50 was under 1 nM.

Regarding `COc1cc2c(O[C@@H]3C[C@H](C)N(Cc4sc(NC(C)=O)nc4F)C3)ccnc2cc1F` [Example 128, N-(4-fluoro-5-(((2S,4R)-4-((7-fluoro-6-methoxyquinolin-4-yl)oxy)-2-methylpyrrolidin-1-yl)methyl)thiazol-2-yl)acetamide], the IC50 was under 1 nM.

Regarding `CC(=O)Nc1ncc(CN2C[C@H](Oc3ccnc4ccoc34)C[C@@H]2C)s1` [Example 48, N-(5-(((2S,4R)-4-(furo[3,2-b]pyridin-7-yloxy)-2-methylpyrrolidin-1-yl)methyl)thiazol-2-yl)acetamide], the IC50 was under 1 nM.

Turning to `CC(=O)Nc1nc(F)c(CN2C[C@H](Oc3cnc4nc(C)oc4c3)C[C@@H]2C)s1` [Example 169, N-(4-Fluoro-5-(((2S,4R)-2-methyl-4-((2-methyloxazolo[4,5-b]pyridin-6-yl)oxy)pyrrolidin-1-yl)methyl)thiazol-2-yl)acetamide], the IC50 was under 1 nM.

With `CC(=O)Nc1ncc(CN2C[C@H](Oc3cc4nccn4cn3)C[C@@H]2C)s1` [Example 39, N-(5-(((2S,4R)-4-(imidazo[1,2-c]pyrimidin-7-yloxy)-2-methylpyrrolidin-1-yl)methyl)thiazol-2-yl)acetamide], the IC50 is under 1 nM.

Take `CC(=O)Nc1ncc(CN2C[C@H](Oc3ccn4ccnc4c3)C[C@@H]2C)s1` [Example 42, N-(5-(((2S,4R)-4-(imidazo[1,2-a]pyridin-7-yloxy)-2-methylpyrrolidin-1-yl)methyl)thiazol-2-yl)acetamide]: the IC50 is under 1 nM.

Take `CC(=O)Nc1ncc(CN2C[C@H](Oc3nc4cccnc4n3C)C[C@@H]2C)s1` [Example 91, N-(5-(((2S,4R)-2-methyl-4-((3-methyl-3H-imidazo[4,5-b]pyridin-2-yl)oxy)pyrrolidin-1-yl)methyl)thiazol-2-yl)acetamide]: the IC50 came out at 5 nM.

`CC(=O)Nc1nc(F)c(CN2C[C@H](Oc3ncnc4ccoc34)C[C@@H]2C)s1` [Example 94, N-(4-fluoro-5-(((2S,4R)-4-(furo[3,2-d]pyrimidin-4-yloxy)-2-methylpyrrolidin-1-yl)methyl)thiazol-2-yl)acetamide]: the IC50 was under 1 nM.

For the molecule `CC(=O)Nc1nc(F)c(CN2C[C@H](Oc3cc4cnn(C)c4cn3)C[C@@H]2C)s1` [Example 90, N-(4-fluoro-5-(((2S,4R)-2-methyl-4-((1-methyl-1H-pyrazolo[3,4-c]pyridin-5-yl)oxy)pyrrolidin-1-yl)methyl)thiazol-2-yl)acetamide], the IC50 is under 1 nM.

Turning to `CC(=O)Nc1nc(F)c(CN2C[C@H](Oc3cnc4c(ccn4C)n3)C[C@@H]2C)s1` [Example 109, N-(4-fluoro-5-(((2S,4R)-2-methyl-4-((5-methyl-5H-pyrrolo[2,3-b]pyrazin-2-yl)oxy)pyrrolidin-1-yl)methyl)thiazol-2-yl)acetamide], the IC50 is under 1 nM.

In the case of `CC(=O)Nc1nc(F)c(CN2C[C@H](Oc3ccnc4c3cnn4C)C[C@@H]2C)s1` [Example 139, N-(4-fluoro-5-(((2S,4R)-2-methyl-4-((1-methyl-1H-pyrazolo[3,4-b]pyridin-4-yl)oxy)pyrrolidin-1-yl)methyl)thiazol-2-yl)acetamide], the 50% inhibitory concentration (IC50) is under 1 nM.

For `CC(=O)Nc1nc(F)c(CN2C[C@H](Oc3ncnc4cccc(F)c34)C[C@@H]2C)s1` [Example 124, N-(4-fluoro-5-(((2S,4R)-4-((5-fluoroquinazolin-4-yl)oxy)-2-methylpyrrolidin-1-yl)methyl)thiazol-2-yl)acetamide], the IC50 was under 1 nM.

Take `CC(=O)Nc1ncc(CN2C[C@H](Oc3cc(C(N)=O)nc4ccccc34)C[C@@H]2C)s1` [Example 21, 4-(((3R,5S)-1-((2-acetamidothiazol-5-yl)methyl)-5-methylpyrrolidin-3-yl)oxy)quinoline-2-carboxamide]: the IC50 amounted to 1.9 nM.
